Laboratory results reported in US20250320206A1, “STAT6 DEGRADERS” (Gilead Sciences, Inc., priority 2024, published 2025).

Molecular target: T1, STAT6 (Homo sapiens, UniProt P42226)
T1 construct: These cells express endogenous STAT6; host or cells: HeLa LgBiT clone 4.14
T1 sequence (P42226 1-847): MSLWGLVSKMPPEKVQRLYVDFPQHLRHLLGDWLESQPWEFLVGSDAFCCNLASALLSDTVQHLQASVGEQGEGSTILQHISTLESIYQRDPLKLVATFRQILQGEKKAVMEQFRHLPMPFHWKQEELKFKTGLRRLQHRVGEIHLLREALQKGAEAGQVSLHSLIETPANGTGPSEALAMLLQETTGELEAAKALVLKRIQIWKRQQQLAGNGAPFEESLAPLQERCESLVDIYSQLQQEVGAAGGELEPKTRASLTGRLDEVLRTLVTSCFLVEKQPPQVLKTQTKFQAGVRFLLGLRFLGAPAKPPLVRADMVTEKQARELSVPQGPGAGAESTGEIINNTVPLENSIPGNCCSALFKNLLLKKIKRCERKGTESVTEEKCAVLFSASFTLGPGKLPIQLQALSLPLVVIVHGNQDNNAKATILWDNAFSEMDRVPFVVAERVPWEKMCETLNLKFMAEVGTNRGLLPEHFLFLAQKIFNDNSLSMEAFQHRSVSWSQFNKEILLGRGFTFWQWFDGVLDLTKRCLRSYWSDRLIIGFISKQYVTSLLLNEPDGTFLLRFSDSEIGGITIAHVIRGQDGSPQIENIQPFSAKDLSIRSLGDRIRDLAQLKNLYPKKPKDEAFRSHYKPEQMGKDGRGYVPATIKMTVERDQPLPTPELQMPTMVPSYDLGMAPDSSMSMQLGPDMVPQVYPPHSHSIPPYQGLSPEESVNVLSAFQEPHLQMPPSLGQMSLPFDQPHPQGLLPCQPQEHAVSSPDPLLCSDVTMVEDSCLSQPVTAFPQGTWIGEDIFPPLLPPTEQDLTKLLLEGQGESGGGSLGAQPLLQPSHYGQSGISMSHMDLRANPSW
Assay: Stat6 Degrader Assay (HiBiT based, HeLa LgBiT clone 4.14)
Assay type: cell-based
Settings: HeLa LgBiT clone 4.14 HiBiT-STAT6, 4-24 h incubation; read-out: STAT6 degradation Emax
Description: This was a HiBit based assay. A HeLa cell line stably transfected with a small protein, LgBit (Large Bit) was obtained from Promega. These cells express endogenous STAT6. A small 11 amino acid gene sequence (HiBiT) was inserted in the STAT6 gene using CRISPR technology. Once STAT6 protein is expressed in the cells, the HiBiT sequence will bind the LgBit in the cells resulting in a functional NanoBiT protein, giving a luminescent tag to STAT6, see FIG. 2.
Single cell clones were prepared and the clone 4.14 was selected for the assay based on that clone showing high luminescence, high STAT6 phosphorylation upon stimulation with IL-4, and inhibition of luminescence when cells were treated with STAT6 siRNA.
HeLa LgBiT clone 4.14 cells were suspended in DMEM with 10% FCS, 1% Pen/Strep, Na-pyrovate and Hygromycin B, at a concentration of 1.25*105 cells pr mL. 5000 cells were added pr well of a 384 well plate and 20 nL of compound was added by Echo® liquid handler. NN6394A (terfenadine, a toxic compound) was added to control wells at 50 μM concentration to establish the assay window. In these wells the cells are dead which equals 100% degradation of STAT6.
After 4-24 h of incubation at 37° C. under 5% CO2/95% air, 5 μL substrate (Nano-GLO®) was added to the wells and the plates were centrifuged and incubated for 0.5 h.
The luminescence in the wells as a measure of non-degraded STAT6 was measured in a plate reader (BMG Pherastar FSX).
The dose-response curves for Examples 3u208, 3u246, 3u118, 3u119, 3u120, and 3u74 are shown in FIG. 1 (where percent degradation is plotted vs. test compound concentration in M on a log-scale).

Compound	Emax [%]
CNc1cc(=O)n(-c2ccnc3c2cc(CN2CCC(c4c(F)cc(C(=O)N5CCC(OCC#Cc6ccc7c(c6)n(C)c(=O)n7C6CCC(=O)NC6=O)CC5)cc4F)CC2)n3C)cc1F (stereo not shown) [Example 3u262, 3-(5-(3-((1-(3,5-difluoro-4-(1-((4-(5-fluoro-4-(methylamino)-2-oxopyridin-1 (2H)-yl)-1-methyl-1H-pyrrolo[2,3-b]pyridin-2-yl)methyl)piperidin-4-yl)benzoyl)piperidin-4-yl)oxy)prop-1-yn-1-yl)-3-methyl-2-oxo-2,3-dihydro-1H-benzo[d]imidazol-1-yl)piperidine-2,6-dione]	30 to 40
CNc1cc(=O)n(-c2ccnc3c2cc([C@H](C)N2CC=C(c4c(C)cc(C(=O)N5CCC(CN6CCN(Cc7ccc8c(c7)n(C7CC7)c(=O)n8C7CCC(=O)NC7=O)C[C@@H]6C)CC5)cc4F)CC2)n3C)cc1OC (stereo partly drawn) [Example 3u134, 3-(3-cyclopropyl-5-(((S)-4-((1-(3-fluoro-4-(1-((S)-1-(4-(5-methoxy-4-(methylamino)-2-oxopyridin-1 (2H)-yl)-1-methyl-1H-pyrrolo[2,3-b]pyridin-2-yl)ethyl)-1,2,3,6-tetrahydropyridin-4-yl)-5-methylbenzoyl)piperidin-4-yl)methyl)-3-methylpiperazin-1-yl)methyl)-2-oxo-2,3-dihydro-1H-benzo[d]imidazol-1-yl)piperidine-2,6-dione]	20 to 30
CNc1cc(=O)n(-c2ccnc3c2cc(CN2CCC(c4c(F)cc(C(=O)N5CCC(CCn6cc(-c7ccc8c(c7)n(C)c(=O)n8C7CCC(=O)NC7=O)nn6)CC5)cc4F)CC2)n3C)cc1F (stereo not shown) [Example 3u263, 3-(5-(1-(2-(1-(3,5-difluoro-4-(1-((4-(5-fluoro-4-(methylamino)-2-oxopyridin-1 (2H)-yl)-1-methyl-1H-pyrrolo[2,3-b]pyridin-2-yl)methyl)piperidin-4-yl)benzoyl)piperidin-4-yl)ethyl)-1H-1,2,3-triazol-4-yl)-3-methyl-2-oxo-2,3-dihydro-1H-benzo[d]imidazol-1-yl)piperidine-2,6-dione]	70 to 80

Same assay, conditions: HeLa LgBiT clone 4.14 HiBiT-STAT6, 4-24 h incubation; values given for compounds with >80% Emax; geometric mean; read-out: STAT6 degradation DC50

Compound	DC50 [nM]
Cc1cc(C(=O)N2CCC(CN3CCN(Cc4cc5c(cc4F)n([C@@H]4CCC(=O)NC4=O)c(=O)n5C4CC4)CC3)CC2)cc(F)c1C1=CCN([C@@H](C)c2cc3c(-n4ccc5c(c4=O)CCN5)ccnc3n2C)CC1 (single isomer, unassigned) [Example 3u148]	2.7
Cc1cc(C(=O)N2CCC(CN3CCN(Cc4ccc5c(c4)n(C4CC4)c(=O)n5[C@@H]4CCC(=O)NC4=O)C[C@@H]3C)CC2)cc(F)c1C1=CCN([C@@H](C)c2cc3c(-n4ccc5c(c4=O)CCN5)ccnc3n2C)CC1 (single isomer, unassigned) [Example 3u144]	0.4
CNc1ccn(-c2ccnc3c2cc([C@H](C)N2CC=C(c4c(C)cc(C(=O)N5CCC(CN6CCN(Cc7ccc8c(c7)n(C)c(=O)n8[C@H]7CCC(=O)NC7=O)CC6)CC5)cc4F)CC2)n3C)c(=O)c1 (single isomer, unassigned) [Example 3u156]	0.6
CNc1ccn(-c2ccnc3c2cc([C@H](C)N2CC=C(c4c(C)cc(C(=O)N5CCn6c(nnc6C6CCN(Cc7ccc8c(c7)n(C)c(=O)n8C7CCC(=O)NC7=O)CC6)C5)cc4F)CC2)n3C)c(=O)c1 (stereo partly drawn) [Example 3u275, 3-(5-((4-(7-(3-fluoro-5-methyl-4-(1-((S)-1-(1-methyl-4-(4-(methylamino)-2-oxopyridin-1 (2H)-yl)-1H-pyrrolo[2,3-b]pyridin-2-yl)ethyl)-1,2,3,6-tetrahydropyridin-4-yl)benzoyl)-5,6,7,8-tetrahydro-[1,2,4]triazolo[4,3-a]pyrazin-3-yl)piperidin-1-yl)methyl)-3-methyl-2-oxo-2,3-dihydro-1H-benzo[d]imidazol-1-yl)piperidine-2,6-dione]	57.4
CNc1ccn(-c2ccnc3c2cc([C@H](C)N2CC=C(c4c(C)cc(C(=O)N5CCC(CN6CCN(Cc7ccc8c(c7)C(F)(F)C(=O)N8C7CCC(=O)NC7=O)CC6)CC5)cc4F)CC2)n3C)c(=O)c1 (stereo partly drawn) [Example 3u255, 3-(3,3-difluoro-5-((4-((1-(3-fluoro-5-methyl-4-(1-((S)-1-(1-methyl-4-(4-(methylamino)-2-oxopyridin-1 (2H)-yl)-1H-pyrrolo[2,3-b]pyridin-2-yl)ethyl)-1,2,3,6-tetrahydropyridin-4-yl)benzoyl)piperidin-4-yl)methyl)piperazin-1-yl)methyl)-2-oxoindolin-1-yl)piperidine-2,6-dione]	13.7
CNc1ccn(-c2ccnc3c2cc(CN2CC=C(c4c(F)cc(C(=O)N5CCC(CN6CCN(Cc7ccc8c(c7)n(C)c(=O)n8[C@H]7CCC(=O)NC7=O)C[C@@H]6C)CC5)cc4F)CC2)n3C)c(=O)c1 (single isomer, unassigned) [Example 3u2]	4.3
CNc1cc(=O)n(-c2ccnc3c2cc([C@H](C)N2CC=C(c4c(C)cc(C(=O)N5CCC(CC6(O)CCN(c7ccc8c(c7)C7(CC7)C(=O)N8C7CCC(=O)NC7=O)CC6)CC5)cc4F)CC2)n3C)cc1F (stereo partly drawn) [Example 3u70, 3-(5′-(4-((1-(3-fluoro-4-(1-((S)-1-(4-(5-fluoro-4-(methylamino)-2-oxopyridin-1 (2H)-yl)-1-methyl-1H-pyrrolo[2,3-b]pyridin-2-yl)ethyl)-1,2,3,6-tetrahydropyridin-4-yl)-5-methylbenzoyl)-piperidin-4-yl)methyl)-4-hydroxypiperidin-1-yl)-2′-oxospiro[cyclopropane-1,3′-indolin]-1′-yl)-piperidine-2,6-dione]	5.8
CNc1ccn(-c2ccnc3c2cc(CN2CC=C(c4c(C)cc(C(=O)N5CCC(CN6CCN(Cc7ccc8c(c7)n(C)c(=O)n8C7CCC(=O)NC7=O)CC6)CC5)cc4F)CC2)n3C)c(=O)c1 (stereo not shown) [Example 3u163, 3-(5-((4-((1-(3-fluoro-5-methyl-4-(1-((1-methyl-4-(4-(methylamino)-2-oxopyridin-1 (2H)-yl)-1H-pyrrolo[2,3-b]pyridin-2-yl)methyl)-1,2,3,6-tetrahydropyridin-4-yl)benzoyl)piperidin-4-yl)methyl)piperazin-1-yl)methyl)-3-methyl-2-oxo-2,3-dihydro-1H-benzo[d]imidazol-1-yl)piperidine-2,6-dione]	4.4
CNc1ccn(-c2ccnc3c2cc([C@H](C)N2CC=C(c4c(C)cc(C(=O)N5CCC(CN6CCN(Cc7ccc8c(c7)n(C7CC7)c(=O)n8[C@H]7CCC(=O)NC7=O)CC6)CC5)cc4F)CC2)n3C)c(=O)c1 (single isomer, unassigned) [Example 3u123]	0.9
CNc1ccn(-c2ccnc3c2cc([C@H](C)N2CC=C(c4c(C)cc(C(=O)N5CCn6nc(CN7CCN(c8ccc9c(c8)n(C)c(=O)n9C8CCC(=O)NC8=O)CC7)cc6C5)cc4F)CC2)n3C)c(=O)c1 (stereo partly drawn) [Example 3u277, 3-(5-(4-((5-(3-fluoro-5-methyl-4-(1-((S)-1-(1-methyl-4-(4-(methylamino)-2-oxopyridin-1 (2H)-yl)-1H-pyrrolo[2,3-b]pyridin-2-yl)ethyl)-1,2,3,6-tetrahydropyridin-4-yl)benzoyl)-4,5,6,7-tetrahydropyrazolo[1,5-a]pyrazin-2-yl)methyl)piperazin-1-yl)-3-methyl-2-oxo-2,3-dihydro-1H-benzo[d]imidazol-1-yl)piperidine-2,6-dione]	0.4
